Results from US11331369B2, “Endoparasitic depsipeptides” (Zoetis Services LLC, priority 2017, dated 2022).

Legend:
Type in all cases: cell-based
[1] = test system: 4th stage larvae (L4) of Dirofilaria immitis; experiment: Dirofilaria immitis, L4 Stage (DiL4) In Vitro Assay; conditions: Dirofilaria immitis, 72 h, read-out: DiL4 Minimum Effective Dose (MED), approximately 72 hours incubation; L4 larvae assessed for survival or paralysis
[2] = test system: microfilariae of Dirofilaria immitis; experiment: Dirofilaria immitis, Microfilaria (DiMF) In vitro Assay; conditions: 72 h, read-out: DiMF Minimum Effective Dose (MED), approximately 72 hours incubation, microfilariae assessed for survival or paralysis
[3] = test system: third stage larvae of Haemonchus contortus; experiment: Haemonchus contortus L3 (HcL3) Assay; conditions: 96 h, read-out: HcL3 Minimum Effective Dose (MED)

CC(C)C[C@H]1C(=O)O[C@H](Cc2ccc(Cn3nccc3C3CCCC3)cc2)C(=O)N(C)[C@@H](CC(C)C)C(=O)O[C@H](C)C(=O)N(C)[C@@H](CC(C)C)C(=O)O[C@H](Cc2ccc(Cn3ccc(C4CCCC4)n3)cc2)C(=O)N(C)[C@@H](CC(C)C)C(=O)O[C@H](C)C(=O)N1C [Example 1a-34, (3S,6R,9S,12R,15S,18R,21S,24R)-6-(4-((3-cyclopentyl-1H-pyrazol-1-yl)methyl)benzyl)-18-(4-((5-cyclopentyl-1H-pyrazol-1-yl)methyl)benzyl)-3,9,15,21-tetraisobutyl-4,10,12,16,22,24-hexamethyl-1,7,13,19-tetraoxa-4,10,16,22-tetraazacyclotetracosan-2,5,8,11,14,17,20,23-octaone]
minimal effective concentration [1]: 0.001 to 0.01 µM

Cc1nn(Cc2ccc(C[C@H]3OC(=O)[C@H](CC(C)C)N(C)C(=O)[C@@H](C)OC(=O)[C@H](CC(C)C)N(C)C(=O)[C@@H](Cc4ccc(Cn5nc(C)c(Cl)c5C)cc4)OC(=O)[C@H](CC(C)C)N(C)C(=O)[C@@H](C)OC(=O)[C@H](CC(C)C)N(C)C3=O)cc2)c(C)c1Cl [Example 1b-51, (3S,6R,9S,12R,15S,18R,21S,24R)-6,18-bis(4-((4-chloro-3,5-dimethyl-1H-pyrazol-1-yl)methyl)benzyl)-3,9,15,21-tetraisobutyl-4,10,12,16,22,24-hexamethyl-1,7,13,19-tetraoxa-4,10,16,22-tetraazacyclotetracosan-2,5,8,11,14,17,20,23-octaone]
minimal effective concentration [1]: 0.0001 to 0.001 µM

CC(C)C[C@H]1C(=O)O[C@H](Cc2ccc(Cn3cc(OCC4CC4)cn3)cc2)C(=O)N(C)[C@@H](CC(C)C)C(=O)O[C@H](C)C(=O)N(C)[C@@H](CC(C)C)C(=O)O[C@H](Cc2ccc(Cn3cc(OCC4CC4)cn3)cc2)C(=O)N(C)[C@@H](CC(C)C)C(=O)O[C@H](C)C(=O)N1C [Example 1b-146, (3S,6R,9S,12R,15S,18R,21S,24R)-6,18-bis(4-((4-(cyclopropylmethoxy)-1H-pyrazol-1-yl)methyl)benzyl)-3,9,15,21-tetraisobutyl-4,10,12,16,22,24-hexamethyl-1,7,13,19-tetraoxa-4,10,16,22-tetraazacyclotetracosan-2,5,8,11,14,17,20,23-octaone]
minimal effective concentration [1]: 0.001 to 0.01 µM

CC(C)C[C@H]1C(=O)O[C@H](Cc2ccc(Cn3nccc3-c3ccc(Cl)cc3)cc2)C(=O)N(C)[C@@H](CC(C)C)C(=O)O[C@H](C)C(=O)N(C)[C@@H](CC(C)C)C(=O)O[C@H](Cc2ccc(Cn3nccc3-c3ccc(Cl)cc3)cc2)C(=O)N(C)[C@@H](CC(C)C)C(=O)O[C@H](C)C(=O)N1C [Example 1b-153, (3S,6R,9S,12R,15S,18R,21S,24R)-6,18-bis(4-((5-(4-chlorophenyl)-1H-pyrazol-1-yl)methyl)benzyl)-3,9,15,21-tetraisobutyl-4,10,12,16,22,24-hexamethyl-1,7,13,19-tetraoxa-4,10,16,22-tetraazacyclotetracosan-2,5,8,11,14,17,20,23-octaone]
minimal effective concentration [1]: 0.001 to 0.01 µM

COc1cc(C)n(Cc2ccc(C[C@H]3OC(=O)[C@H](CC(C)C)N(C)C(=O)[C@@H](C)OC(=O)[C@H](CC(C)C)N(C)C(=O)[C@@H](Cc4ccc(Cn5nc(OC)cc5C)cc4)OC(=O)[C@H](CC(C)C)N(C)C(=O)[C@@H](C)OC(=O)[C@H](CC(C)C)N(C)C3=O)cc2)n1 [Example 1b-168, (3S,6R,9S,12R,15S,18R,21S,24R)-3,9,15,21-tetraisobutyl-6,18-bis(4-((3-methoxy-5-methyl-1H-pyrazol-1-yl)methyl)benzyl)-4,10,12,16,22,24-hexamethyl-1,7,13,19-tetraoxa-4,10,16,22-tetraazacyclotetracosan-2,5,8,11,14,17,20,23-octaone]
minimal effective concentration [1]: 0.001 to 0.01 µM

CCOc1cc(-c2ccccc2)nn1Cc1ccc(C[C@H]2OC(=O)[C@H](CC(C)C)N(C)C(=O)[C@@H](C)OC(=O)[C@H](CC(C)C)N(C)C(=O)[C@@H](Cc3ccc(Cn4nc(-c5ccccc5)cc4OCC)cc3)OC(=O)[C@H](CC(C)C)N(C)C(=O)[C@@H](C)OC(=O)[C@H](CC(C)C)N(C)C2=O)cc1 [Example 1b-178, (3S,6R,9S,12R,15S,18R,21S,24R)-6,18-bis(4-((5-ethoxy-3-phenyl-1H-pyrazol-1-yl)methyl)benzyl)-3,9,15,21-tetraisobutyl-4,10,12,16,22,24-hexamethyl-1,7,13,19-tetraoxa-4,10,16,22-tetraazacyclotetracosan-2,5,8,11,14,17,20,23-octaone]
minimal effective concentration [1]: 0.001 to 0.01 µM

Cc1cc(C#N)nn1Cc1ccc(C[C@H]2OC(=O)[C@H](CC(C)C)N(C)C(=O)[C@@H](C)OC(=O)[C@H](CC(C)C)N(C)C(=O)[C@@H](Cc3ccc(Cn4nc(C#N)cc4C)cc3)OC(=O)[C@H](CC(C)C)N(C)C(=O)[C@@H](C)OC(=O)[C@H](CC(C)C)N(C)C2=O)cc1 [Example 1b-194, 1,1′-(((((2R,5S,8R,11S,14R,17S,20R,23S)-5,11,17,23-tetraisobutyl-4,8,10,16,20,22-hexamethyl-3,6,9,12,15,18,21,24-octaoxo-1,7,13,19-tetraoxa-4,10,16,22-tetraazacyclotetracosane-2,14-diyl)bis(methylene))bis(4,1-phenylene))bis(methylene))bis(5-methyl-1H-pyrazole-3-carbonitrile)]
minimal effective concentration [1]: 0.0001 to 0.001 µM

CC(C)C[C@H]1C(=O)O[C@H](Cc2ccc(C(C)(C)n3cc(C4CC4)cn3)cc2)C(=O)N(C)[C@@H](CC(C)C)C(=O)O[C@H](C)C(=O)N(C)[C@@H](CC(C)C)C(=O)O[C@H](Cc2ccc(C(C)(C)n3cc(C4CC4)cn3)cc2)C(=O)N(C)[C@@H](CC(C)C)C(=O)O[C@H](C)C(=O)N1C [Example 1c-8, (3S,6R,9S,12R,15S,18R,21S,24R)-6,18-bis(4-(2-(4-cyclopropyl-1H-pyrazol-1-yl)propan-2-yl)benzyl)-3,9,15,21-tetraisobutyl-4,10,12,16,22,24-hexamethyl-1,7,13,19-tetraoxa-4,10,16,22-tetraazacyclotetracosan-2,5,8,11,14,17,20,23-octaone]
minimal effective concentration [1]: ≤ 0.0001 µM

Cc1nc(C2CC2)n(Cc2ccc(C[C@H]3OC(=O)[C@H](CC(C)C)N(C)C(=O)[C@@H](C)OC(=O)[C@H](CC(C)C)N(C)C(=O)[C@@H](Cc4ccc(Cn5nc(C)nc5C5CC5)cc4)OC(=O)[C@H](CC(C)C)N(C)C(=O)[C@@H](C)OC(=O)[C@H](CC(C)C)N(C)C3=O)cc2)n1 [Example 9-57, (3S,6R,9S,12R,15S,18R,21S,24R)-6,18-bis(4-((5-cyclopropyl-3-methyl-1H-1,2,4-triazol-1-yl)methyl)benzyl)-3,9,15,21-tetraisobutyl-4,10,12,16,22,24-hexamethyl-1,7,13,19-tetraoxa-4,10,16,22-tetraazacyclotetracosan-2,5,8,11,14,17,20,23-octaone]
minimal effective concentration [2]: 0.01 to 0.1 µM
minimal effective concentration [3]: 1 to 10 µM

CCc1nc(C)nn1Cc1ccc(C[C@H]2OC(=O)[C@H](CC(C)C)N(C)C(=O)[C@@H](C)OC(=O)[C@H](CC(C)C)N(C)C(=O)[C@@H](Cc3ccc(Cn4nc(C)nc4CC)cc3)OC(=O)[C@H](CC(C)C)N(C)C(=O)[C@@H](C)OC(=O)[C@H](CC(C)C)N(C)C2=O)cc1 [Example 9-59, (3S,6R,9S,12R,15S,18R,21S,24R)-6,18-bis(4-((5-ethyl-3-methyl-1H-1,2,4-triazol-1-yl)methyl)benzyl)-3,9,15,21-tetraisobutyl-4,10,12,16,22,24-hexamethyl-1,7,13,19-tetraoxa-4,10,16,22-tetraazacyclotetracosan-2,5,8,11,14,17,20,23-octaone]
minimal effective concentration [2]: 0.01 to 0.1 µM
minimal effective concentration [3]: 1 to 10 µM

CC(C)C[C@H]1C(=O)O[C@H](C)C(=O)N(C)[C@@H](CC(C)C)C(=O)O[C@H](Cc2ccccc2)C(=O)N(C)[C@@H](CC(C)C)C(=O)O[C@H](C)C(=O)N(C)[C@@H](CC(C)C)C(=O)O[C@@H](Cc2ccc(CN3CCC(F)(F)CC3)cc2)C(=O)N1C [Example 10-3, (3S,6R,9S,12R,15S,18S,21S,24R)-6-benzyl-18-(4-((4,4-difluoropiperidin-1-yl)methyl)benzyl)-3,9,15,21-tetraisobutyl-4,10,12,16,22,24-hexamethyl-1,7,13,19-tetraoxa-4,10,16,22-tetraazacyclotetracosan-2,5,8,11,14,17,20,23-octaone]
minimal effective concentration [2]: 0.01 to 0.1 µM
minimal effective concentration [3]: 1 to 10 µM

CC(C)C[C@H]1C(=O)O[C@H](Cc2ccc(Cn3ccccc3=O)cc2)C(=O)N(C)[C@@H](CC(C)C)C(=O)O[C@H](C)C(=O)N(C)[C@@H](CC(C)C)C(=O)O[C@H](Cc2ccccc2)C(=O)N(C)[C@@H](CC(C)C)C(=O)O[C@H](C)C(=O)N1C [Example 10-17, (3S,6R,9S,12R,15S,18R,21S,24R)-6-benzyl-3,9,15,21-tetraisobutyl-4,10,12,16,22,24-hexamethyl-18-(4-((2-oxopyridin-1 (2H)-yl)methyl)benzyl)-1,7,13,19-tetraoxa-4,10,16,22-tetraazacyclotetracosan-2,5,8,11,14,17,20,23-octaone]
minimal effective concentration [2]: 0.001 to 0.01 µM
minimal effective concentration [3]: 1 to 10 µM

CC(C)C[C@H]1C(=O)O[C@H](Cc2ccc(CN3CCOC3=O)cc2)C(=O)N(C)[C@@H](CC(C)C)C(=O)O[C@H](C)C(=O)N(C)[C@@H](CC(C)C)C(=O)O[C@H](Cc2ccccc2)C(=O)N(C)[C@@H](CC(C)C)C(=O)O[C@H](C)C(=O)N1C [Example 10-18, (3S,6R,9S,12R,15S,18R,21S,24R)-6-benzyl-3,9,15,21-tetraisobutyl-4,10,12,16,22,24-hexamethyl-18-(4-((2-oxooxazolidin-3-yl)methyl)benzyl)-1,7,13,19-tetraoxa-4,10,16,22-tetraazacyclotetracosan-2,5,8,11,14,17,20,23-octaone]
minimal effective concentration [2]: 0.01 to 0.1 µM
minimal effective concentration [3]: 1 to 10 µM
